Laboratory results: US20250213571A1, “TYK2 INHIBITORS AND USES THEREOF” (Alumis Inc., priority 2022, published 2025)
Where a name gives a salt, the structure may show the parent alone.

Experiments:
[1] = target: human TYK2 (JH2domain-pseudokinase) (Homo sapiens (Human), UniProt P29597); test: TYK2 JH2 domain binding assay (KINOMEscan)
Procedure: Binding constants for the compounds described herein against the JH2 domain were determined by the following protocol for a KINOMEscan® assay (DiscoveRx). A fusion protein of a partial length construct of human TYK2 (JH2domain-pseudokinase) (amino acids G556 to D888 based on reference sequence NP_003322.3) and the DNA binding domain of NFkB was expressed in transiently transfected HEK293 cells. From these HEK 293 cells, extracts were prepared in M-PER extraction buffer (Pierce) in the presence of Protease Inhibitor Cocktail Complete (Roche) and Phosphatase Inhibitor Cocktail Set II (Merck) per manufacturers' instructions. The TYK2 (JH2domain-pseudokinase) fusion protein was labeled with a chimeric double-stranded DNA tag containing the NFkB binding site fused to an amplicon for qPCR readout, which was added directly to the expression extract (the final concentration of DNA-tag in the binding reaction is 0.1 nM).
Streptavidin-coated magnetic beads (Dynal M280) were treated with a biotinylated small molecule ligand for 30 minutes at room temperature to generate affinity resins the binding assays. The liganded beads were blocked with excess biotin and washed with blocking buffer (SeaBlock (Pierce), 1% BSA, 0.05% Tween 20, 1 mM DTT) to remove unbound ligand and to reduce nonspecific binding.
The binding reaction was assembled by combining 16 μl of DNA-tagged kinase extract, 3.8 μl liganded affinity beads, and 0.18 μl test compound (PBS/0.05% Tween 20/10 mM DTT/0.1% BSA/2 μg/ml sonicated salmon sperm DNA)]. Extracts were used directly in binding assays without any enzyme purification steps at a ≥10,000-fold overall stock dilution (final DNA-tagged enzyme concentration <0.1 nM). Extracts were loaded with DNA-tag and diluted into the binding reaction in a two-step process. First extracts were diluted 1:100 in 1×binding buffer (PBS/0.05% Tween 20/10 mM DTT/0.1% BSA/2 […] sonicated salmon sperm DNA) containing 10 nM DNA-tag. This dilution was allowed to equilibrate at room temperature for 15 minutes and then subsequently diluted 1:100 in 1× binding buffer. Test compounds were prepared as 111× stocks in 100% DMSO. Kds were determined using an 11-point 3-fold compound dilution series with three DMSO control points. All compounds for Kd measurements were distributed by acoustic transfer (non-contact dispensing) in 100% DMSO. The compounds were then diluted directly into the assays such that the final concentration of DMSO was 0.9%. All reactions were performed in polypropylene 384-well plates. Each was a final volume of 0.02 mL. Assays were incubated with shaking for 1 hour at room temperature. Then the beads were pelleted and washed with wash buffer (1×PBS, 0.05% Tween 20) to remove displaced kinase and test compound. The washed based were resuspended in elution buffer (1 λPBS, 0.05% Tween […] non-biotinylated affinity ligand) and incubated at room temperature with shaking for 30 minutes. The kinase concentration in the eluates was measured by qPCR. qPCR reactions were assembled by adding 2.5 μL of kinase eluate to 7.5 μL of qPCR master mix containing […] amplicon primers and 0.15 μM amplicon probe. The qPCR protocol consisted of a 10 minute hot start at 95° C., followed by 35 cycles of 95° C. for 15 seconds, 60° C. for 1 minute.
Test compounds were prepared as 111× stocks in 100% DMSO. Kds were determined using an 11-point 3-fold compound dilution series with three DMSO control points. All compounds for Kd measurements were distributed by acoustic transfer (non-contact dispensing) in 100% DMSO. The compounds were then diluted directly into the assays such that the final concentration of DMSO was 0.9%. The Kds were determined using a compound top concentration of 30,000 nM. Kd measurements were performed in duplicate.
Binding constants (Kds) were calculated with a standard dose-response curve using the Hill equation: […]
The Hill Slope was set to −1. […]

TYK2 JH1 = TYK2 JH1 (Homo sapiens (Human), UniProt P29597); test: TYK2 JH1 binding (Kd, Table 2); settings: JH1 domain
JAK1 JH2 = JAK1 JH2 (Homo sapiens (Human), UniProt P23458); test: JAK1 JH2 binding (Kd, Table 2); settings: JH2 domain
JAK1 JH2, sequence (P23458 583-855): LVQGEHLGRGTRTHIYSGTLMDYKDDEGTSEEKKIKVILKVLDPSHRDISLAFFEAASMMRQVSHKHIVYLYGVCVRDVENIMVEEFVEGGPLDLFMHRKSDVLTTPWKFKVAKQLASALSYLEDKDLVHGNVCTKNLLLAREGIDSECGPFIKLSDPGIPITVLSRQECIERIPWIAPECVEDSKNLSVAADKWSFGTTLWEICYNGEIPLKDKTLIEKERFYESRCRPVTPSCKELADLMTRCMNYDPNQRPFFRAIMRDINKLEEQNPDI

TYK2 JH1, sequence (P29597 897-1176): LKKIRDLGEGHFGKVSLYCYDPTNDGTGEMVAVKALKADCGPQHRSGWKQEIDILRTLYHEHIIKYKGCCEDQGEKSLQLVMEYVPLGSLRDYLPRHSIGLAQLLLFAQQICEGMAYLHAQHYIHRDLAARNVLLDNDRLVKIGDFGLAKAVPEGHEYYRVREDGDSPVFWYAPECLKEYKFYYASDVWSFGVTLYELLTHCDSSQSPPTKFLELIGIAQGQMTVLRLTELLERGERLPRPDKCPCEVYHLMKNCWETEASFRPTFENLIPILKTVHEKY
human TYK2 (JH2domain-pseudokinase), sequence (P29597 556-888): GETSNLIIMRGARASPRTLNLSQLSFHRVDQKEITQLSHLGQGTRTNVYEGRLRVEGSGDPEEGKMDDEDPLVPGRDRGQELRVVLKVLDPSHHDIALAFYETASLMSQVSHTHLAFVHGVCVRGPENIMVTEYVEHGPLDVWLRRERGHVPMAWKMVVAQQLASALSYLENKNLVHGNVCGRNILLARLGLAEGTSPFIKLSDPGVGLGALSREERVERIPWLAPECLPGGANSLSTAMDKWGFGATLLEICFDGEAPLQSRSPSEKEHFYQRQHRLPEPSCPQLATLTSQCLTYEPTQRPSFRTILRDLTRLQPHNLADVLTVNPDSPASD

Row | Kd [1] [µM] | Kd (TYK2 JH1) [µM] | Kd (JAK1 JH2) [µM] | Compound
1 | < 0.01 | ≥ 30 | 1 to 10 | CNc1cc2nc3c(cnn13)C(=O)O[C@H](C)COCc1cc(c3nnn(C)c3c1)N2 [Compound 4, (R,1^3E,1^4E)-3^1,7-dimethyl-1^7-(methylamino)-3^1H-5,8-dioxa-2-aza-1(5,3),3(4,6)-dipyrazolo [1,5-a]pyrimidinacyclononaphan-9-one]
2 | < 0.01 | ≥ 30 | 1 to 10 | CNc1cc2nc3c(cnn13)C(=O)N[C@H](C)COCc1cc(c3c(c1)ncn3C)N2 [Compound 9, (R,1^3E,1^4E)-3^1,7-Dimethyl-1^7-(methylamino)-3^1H-5-oxa-2,8-diaza-1(5,3)-pyrazolo[1,5-a]pyrimidina-3(7,5)-benzo[d]imidazolacyclononaphan-9-one]
3 | < 0.01 | 1 to 10 | 1 to 10 | CNc1cc2nn3c(cnc13)C(=O)N[C@H](C)COCc1cc(c3ncn(C)c3c1)N2 [Compound 10, (7R,E)-3′,7-Dimethyl-1^8-(methylamino)-3^1H-5-oxa-2,8-diaza-1(6,3)-imidazo[1,2-b]pyrida-zina-3(4,6)-benzo[d]imidazolacyclononaphan-9-one]
4 | < 0.01 | 10 to 30 | 1 to 10 | CNc1cc2nc3c(cnn13)C(=O)N[C@H](C)COCc1cc(c3ncn(C)c3c1)N2 [Compound 11, (R,1^3E,1^4E)-3′,7-Dimethyl-17-(methylamino)-3^1H-5-oxa-2,8-diaza-1(5,3)-pyrazolo[1,5-a]pyrimidina-3(4,6)-benzo[d]imidazolacyclononaphan-9-one]
5 | < 0.01 | 1 to 10 | 0.01 to 1 | CNc1cc2nn3c(cnc13)C(=O)N[C@H](C)COCc1cc(c3cnn(C)c3c1)N2 [Compound 12, (7R,E)-3^1,7-Dimethyl-1^8-(methylamino)-3^1H-5-oxa-2,8-diaza-1(6,3)-imidazo[1,2-b]pyridazina-3(4,6)-indazolacyclononaphan-9-one]
6 | < 0.01 | 10 to 30 | 10 to 30 | CNc1cc2nn3c(cnc13)C(=O)N[C@H](C)COCc1cc(c3c(cnn3C)c1)N2 [Compound 14, (7R,E)-3′,7-Dimethyl-1^8-(methylamino)-3^1H-5-oxa-2,8-diaza-1(6,3)-imidazo[1,2-b]pyridazina-3(7,5)-indazolacyclononaphan-9-one]
7 | < 0.01 | ≥ 30 | 1 to 10 | CNc1cc2nc3c(cnn13)C(=O)N[C@H](CO)[C@@H](C)OCc1cc(c3nnn(C)c3c1)N2 [Compound 15]
8 | < 0.01 | ≥ 30 | ≥ 30 | CNc1cc2nc3c(cnn13)C(=O)N[C@H](C(C)(C)O)COCc1cc(c3nnn(C)c3c1)N2 [Compound 16]
9 | < 0.01 | ≥ 30 | 0.01 to 1 | CNc1cc2nc3c(cnn13)C(=O)N[C@H](C)COCc1cc(c3nn(C)cc3c1)N2 [Compound 35]
10 | < 0.01 | 1 to 10 | 0.01 to 1 | CNc1cc2nn3c(cnc13)C(=O)N[C@H](C)COCc1cc(c3nn(C)cc3c1)N2 [Compound 36]
11 | < 0.01 | ≥ 30 | 1 to 10 | CNc1cc2nc3c(cnn13)C(=O)N[C@H](C)[C@H](C)OCc1cc(c3nnn(C)c3c1)N2 [Compound 38]
12 | < 0.01 | 10 to 30 | 1 to 10 | CNc1cc2nc3c(cnn13)C(=O)N[C@H](C)COCc1cc(c3cnn(C)c3c1)N2 [Compound 52]
13 | < 0.01 | 10 to 30 | 0.01 to 1 | CNc1cc2nc3c(cnn13)C(=O)N[C@H](C)COCc1cc(c3cn(C)nc3c1)N2 [Compound 53]
14 | < 0.01 | – | – | C[C@@H]1COCc2cc(c3nnn(C)c3c2)Nc2ccn3ncc(c3n2)C(=O)N1 [Compound 54]
15 | < 0.01 | – | – | CNc1cc2nn3c(cnc13)C(=O)N[C@H](C)CSCc1cc(c3nnn(C)c3c1)N2 [Compound 55]
16 | < 0.01 | – | – | CNc1cc2nn3c(cnc13)C(=O)N[C@H](C)COc1ncnc3cc(OC)c(cc13)N2 [Compound 56]
17 | < 0.01 | – | – | CNc1cc2nn3c(cnc13)C(=O)N[C@H](C)CS(=O)(=O)Cc1cc(c3nnn(C)c3c1)N2 [Compound 57]
18 | < 0.01 | – | – | CNc1cc2nn3c(cnc13)C(=O)N[C@H](C)C[S+]([O-])Cc1cc(c3nnn(C)c3c1)N2 (stereo partly drawn) [Compound 58]

Row | Kd [1] [µM] | Kd (TYK2 JH1) [µM] | Kd (JAK1 JH2) [µM] | Compound
19 | < 0.01 | – | – | CNc1nc2nc3c(n[nH]c13)C(=O)N[C@H](C)COCc1cc(c3nnn(C)c3c1)N2 [Compound 59]
20 | < 0.01 | 10 to 30 | 0.01 to 1 | CNc1cc2nn3c(cnc13)C(=O)N[C@H](C)COc1ccnc3ccc(cc13)N2 [Compound 60]
21 | < 0.01 | – | – | CNc1cc2nn3c(cnc13)C(=O)N[C@H](C)CNc1ccnc3ccc(cc13)N2 [Compound 61, (12R)-12-methyl-24-(methylamino)-2,4,5,7,11,14,18-heptaazapentacyclo[13.6.2.2^{3,6}0.^{5,9}0.^{19,23}]pentacosa-1(21),3,6,8,15,17,19,22,24-nonaen-10-one]
22 | < 0.01 | – | – | CNc1cc2nn3c(cnc13)C(=O)N[C@H](C)COc1nccc3ccc(cc13)N2 [Compound 62]
23 | < 0.01 | – | – | CNc1cc2nn3c(cnc13)C(=O)N[C@H](C)COc1ccnc3cnc(cc13)N2 [Compound 63, (12R)-12-methyl-24-(methylamino)-14-oxa-2,4,5,7,11,18,21-heptaazapentacyclo[13.6.2.2^(3,6.0^(5,9.0^(19,23]pentacosa-1(22),3,6,8,15,17,19(23),20,24-nonaen-10-one hydrochloride]
24 | < 0.01 | – | – | CNc1cc2nn3c(cnc13)C(=O)N[C@H](C)COc1cccc3ncc(cc13)N2 [Compound 64]
25 | < 0.01 | – | – | CNc1nc2nc3c(nn(C)c13)C(=O)N[C@H](C)COCc1cc(c3nnn(C)c3c1)N2 [Compound 65]
26 | < 0.01 | – | – | CNc1cc2nn3c(cnc13)C(=O)N[C@H](C)CNc1ncnc3ccc(cc13)N2 [Compound 66]
27 | < 0.01 | – | – | Cc1nc2ccc3nn2c1C(=O)N[C@H](C)COCc1cc(c2nnn(C)c2c1)N3 [Compound 67]
28 | < 0.01 | – | – | CNc1cc2nn3c(cnc13)C(=O)N[C@H](C)COc1cncc3ccc(cc13)N2 [Compound 68]
29 | < 0.01 | – | – | CNc1cc2nn3c(cnc13)C(=O)N[C@H](C)COc1cccc3ccc(nc13)N2 [Compound 69]
30 | < 0.01 | – | – | CNc1nc2nc3c(n(C)nc13)C(=O)N[C@H](C)COCc1cc(c3nnn(C)c3c1)N2 [Compound 70]
31 | 0.01 to 1 | – | – | C[C@@H]1COCc2cc(c3nnn(C)c3c2)Nc2ccc3ncc(n3c2)C(=O)N1 [Compound 71]
32 | 0.01 to 1 | – | – | Cc1nc2ccc3cn2c1C(=O)N[C@H](C)COCc1cc(c2nnn(C)c2c1)N3 [Compound 75]
33 | 1 to 10 | – | – | CNc1nc2cn3c(cnc13)C(=O)N[C@H](C)COCc1cc(c3nnn(C)c3c1)N2 [Compound 76]
34 | 1 to 10 | – | – | C[C@@H]1COCc2cc(c3nnn(C)c3c2)Nc2cn3c(cnc3cn2)C(=O)N1 [Compound 77]
35 | ≥ 30 | ≥ 30 | ≥ 30 | CNc1cc2nn3c(cnc13)C(=O)N[C@H](C)COc1cnnc3ccc(cc13)N2 [Compound 80]
36 | < 0.01 | – | – | CNc1cc2nn3c(cnc13)C(=O)N[C@H](C)COCc1cc(cn3ccnc13)N2 [Compound 99, (14R)-14-methyl-21-(methylamino)-12-oxa-2,5,8,15,19,23,24-heptaazapentacyclo[15.5.2.1^(3,10.0^(5,9.0^(20,24]pentacosa-1(23),3,6,8,10(25),17,19,21-octaen-16-one hydrochloride]
